{
  "source": "patent US9615579B2",
  "about": "“Compositions for powdery mildew control and methods of their use” (Valent U.S.A., Corporation, priority 2015, dated 2017)",
  "key": {"Apples, jonagold variety": {"test_system": "Apples, jonagold variety", "test": "Example 2: fruit finish quality of treated apple trees", "type": "in vivo", "settings": "80 days after 7th treatment", "procedure": "(§1) 30, 2015. […] Pest incidence, pest severity, and fruit finish were measured."}, "apple powdery mildew [1]": {"test_system": "apple powdery mildew", "test": "Example 2: foliar applications on jonagold apple trees, incidence and severity of apple powdery mildew", "type": "in vivo, Podosphaera leucotricha", "procedure": "Applicant conducted the following study to determine the effect of a 3-(difluoromethyl)-1-methyl-N-[(3R)-1,1,3-trimethyl-2,3-dihydroinden-4-yl]pyrazole-4-carboxamide foliar applications on fungal infections in apple trees.\nas §1\nSYL-COAT™ was used as the source of polyether-polymethylsiloxane-copolymer and polyether silicone containing surfactant (available from Wilbur-Ellis Company)."}, "apple powdery mildew [2]": {"test_system": "apple powdery mildew", "test": "Example 1: foliar applications on jonagold apple trees, control of apple powdery mildew", "type": "in vivo, Podosphaera leucotricha", "settings": "jonagold trees about 9 years old; five foliar sprays at 14 day intervals, about 300 L/ha; incidence of disease observed about a week after last treatment; rates (own compound 50 g active/ha, silicone surfactant 584 mL/ha, Regulaid surfactant 0.125% v/v, methylated seed oil 0.06% v/v, kresoxim-methyl 224, penthiopyrad 234 g active/ha)", "source_text": "Applicant conducted the following study to determine the effect of 3-(difluoromethyl)-1-methyl-N-[(3R)-1,1,3-trimethyl-2,3-dihydroinden-4-yl]pyrazole-4-carboxamide foliar applications on fungal infections in apple trees.\nA 40% suspension concentrate formulation was used as the source of 3-(difluoromethyl)-1-methyl-N-[(3R)-1,1,3-trimethyl-2,3-dihydroinden-4-yl]pyrazole-4-carboxamide (available from Sumitomo Chemical Company, Tokyo, Japan).\nRegulaid® is a nonionic surfactant and was used as the source of the 2-butoxyethanol, poloxalene, and monopropylene glycol surfactant (Regulaid is available from and a registered trademark of KALO, Inc). Regulaid® contains about 90.6% of 2-butoxyethanol, poloxalene, and monopropylene glycol.\nSovran® was used as the source of kresoxim-methyl (available from and a registered trademark of BASF Corporation).\nFontelis® was used as the source of penthiopyrad (available from and a registered trademark of E.I. du Pont).\nSlygard® 309 was used as the source of a mixture of 3-(3-hydroxypropyl)-heptamethyltrisiloxane-ethoxylated acetate, polyethylene glycol monallyl acetate and polyethylene glycol diacetate silicone containing surfactant (available from and a registered trademark of Wilbur-Ellis Company). Slygard® 309 contains 100% of the mixture of surfactants."}, "[3]": {"settings": "8 days after 4th treatment, rates (own compound 50 g/ha, penthiopyrad 234 g/ha, kresoxim-methyl 224 g/ha, silicone surfactant 8 fl oz/a, Regulaid surfactant 0.125% v/v)"}},
  "data": [
    {"smiles": "CC(C)CC(C)c1sccc1NC(=O)c1cn(C)nc1C(F)(F)F", "note": "(stereo not drawn) [Penthiopyrad, penthiopyrad]", "values": [
      {"measurement": "Fruit Finish Quality (0 lowest-10 highest)", "setting": "Apples, jonagold variety", "result": 8.0000, "unit": "b"},
      {"measurement": "Incidence of Apple Powdery Mildew (%)", "setting": "apple powdery mildew [1]; 2 days after 5th treatment", "result": 1.4675, "unit": "cd %"},
      {"measurement": "Severity of Apple Powdery Mildew (%)", "setting": "apple powdery mildew [1]; 2 days after 5th treatment", "result": 0.6379, "unit": "cd %"},
      {"measurement": "Incidence of Apple Powdery Mildew (%)", "setting": "apple powdery mildew [1]; 3 days after 6th treatment", "result": 2.5965, "unit": "ef %"},
      {"measurement": "Severity of Apple Powdery Mildew (%)", "setting": "apple powdery mildew [1]; 3 days after 6th treatment", "result": 0.7932, "unit": "d %"},
      {"measurement": "Incidence of Apple Powdery Mildew (%)", "setting": "apple powdery mildew [1]; [3]", "result": 7.5000, "unit": "bc %"},
      {"measurement": "Severity of Apple Powdery Mildew (%)", "setting": "apple powdery mildew [1]; 9 days after 7th treatment", "result": 7.8439, "unit": "c %"},
      {"measurement": "% Control", "setting": "apple powdery mildew [2]", "result": 71, "unit": "%"}
    ]},
    {"smiles": "C[C@@H]1CC(C)(C)c2cccc(NC(=O)c3cn(C)nc3C(F)F)c21", "note": "[3-(Difluoromethyl)-1-methyl-N-[(3R)-1,1,3-trimethyl-2,3-dihydroinden-4-yl]pyrazole-4-carboxamide]", "values": [
      {"measurement": "Fruit Finish Quality (0 lowest-10 highest)", "setting": "Apples, jonagold variety", "result": 7.5000, "unit": "b"},
      {"measurement": "Incidence of Apple Powdery Mildew (%)", "setting": "apple powdery mildew [1]; 2 days after 5th treatment", "result": 11.5303, "unit": "bc %"},
      {"measurement": "Severity of Apple Powdery Mildew (%)", "setting": "apple powdery mildew [1]; 2 days after 5th treatment", "result": 1.6836, "unit": "bc %"},
      {"measurement": "Incidence of Apple Powdery Mildew (%)", "setting": "apple powdery mildew [1]; 3 days after 6th treatment", "result": 20.4938, "unit": "c %"},
      {"measurement": "Severity of Apple Powdery Mildew (%)", "setting": "apple powdery mildew [1]; 3 days after 6th treatment", "result": 4.4196, "unit": "c %"},
      {"measurement": "Incidence of Apple Powdery Mildew (%)", "setting": "apple powdery mildew [1]; [3]", "result": 13.0000, "unit": "b %"},
      {"measurement": "Severity of Apple Powdery Mildew (%)", "setting": "apple powdery mildew [1]; 9 days after 7th treatment", "result": 11.5331, "unit": "bc %"},
      {"measurement": "% Control", "setting": "apple powdery mildew [2]", "result": 67, "unit": "%"}
    ]},
    {"smiles": "CO/N=C(/C(=O)OC)c1ccccc1COc1ccccc1C", "note": "[Kresoxim-methyl, kresoxim-methyl]", "values": [
      {"measurement": "Fruit Finish Quality (0 lowest-10 highest)", "setting": "Apples, jonagold variety", "result": 8.2500, "unit": "b"},
      {"measurement": "Incidence of Apple Powdery Mildew (%)", "setting": "apple powdery mildew [1]; 2 days after 5th treatment", "result": 3.4874, "unit": "cd %"},
      {"measurement": "Severity of Apple Powdery Mildew (%)", "setting": "apple powdery mildew [1]; 2 days after 5th treatment", "result": 0.8465, "unit": "cd %"},
      {"measurement": "Incidence of Apple Powdery Mildew (%)", "setting": "apple powdery mildew [1]; 3 days after 6th treatment", "result": 12.0332, "unit": "cd %"},
      {"measurement": "Severity of Apple Powdery Mildew (%)", "setting": "apple powdery mildew [1]; 3 days after 6th treatment", "result": 2.9013, "unit": "c %"},
      {"measurement": "Incidence of Apple Powdery Mildew (%)", "setting": "apple powdery mildew [1]; [3]", "result": 8.7500, "unit": "bc %"},
      {"measurement": "Severity of Apple Powdery Mildew (%)", "setting": "apple powdery mildew [1]; 9 days after 7th treatment", "result": 9.0294, "unit": "bc %"},
      {"measurement": "% Control", "setting": "apple powdery mildew [2]", "result": 63, "unit": "%"}
    ]}
  ]
}
